Counter-ions that a name gives are not always drawn.
What follows are compounds tested against T1, human CPT1A (Homo sapiens, UniProt P50416) (assay: Human CPT1A LC/MS assay). Conditions: human CPT1A LC/MS assay, dose response format.
T1 construct: made in house; host or cells: Saccharomyces cerevisiae (pESC-trp) or cultured mammalian cells (pCDNA3.1); mitochondrial extract
T1 sequence (P50416 1-773): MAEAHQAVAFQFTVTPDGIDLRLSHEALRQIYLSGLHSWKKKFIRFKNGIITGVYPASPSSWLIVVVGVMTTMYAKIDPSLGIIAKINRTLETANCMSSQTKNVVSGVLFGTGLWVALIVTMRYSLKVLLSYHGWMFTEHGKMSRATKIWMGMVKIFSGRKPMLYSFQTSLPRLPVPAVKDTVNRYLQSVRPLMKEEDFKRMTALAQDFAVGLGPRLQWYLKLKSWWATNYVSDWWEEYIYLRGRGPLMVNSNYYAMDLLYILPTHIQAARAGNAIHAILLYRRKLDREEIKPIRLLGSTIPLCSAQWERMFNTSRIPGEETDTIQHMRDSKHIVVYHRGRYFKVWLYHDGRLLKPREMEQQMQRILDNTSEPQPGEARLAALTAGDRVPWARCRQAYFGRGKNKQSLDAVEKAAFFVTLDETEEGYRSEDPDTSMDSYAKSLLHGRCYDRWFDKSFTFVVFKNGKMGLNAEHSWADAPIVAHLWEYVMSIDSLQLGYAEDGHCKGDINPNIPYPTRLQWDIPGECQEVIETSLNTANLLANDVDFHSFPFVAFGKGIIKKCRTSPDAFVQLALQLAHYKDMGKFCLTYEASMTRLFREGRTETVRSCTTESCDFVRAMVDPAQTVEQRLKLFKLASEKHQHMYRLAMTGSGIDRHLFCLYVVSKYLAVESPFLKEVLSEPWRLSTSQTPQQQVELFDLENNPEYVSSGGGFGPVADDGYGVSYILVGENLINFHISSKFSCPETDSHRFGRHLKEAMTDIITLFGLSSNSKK
Assay type: biochemical
Description: Nucleotide sequences encoding human CPT1 enzymes were individually cloned into the yeast expression vector pESC-trp at the Cla1 (5′ terminus) and Pac1 (3′ terminus) restriction sites by PCR amplification of the open reading frame using oligonucleotide primers designed to encode the wild-type CPT1 protein sequence. Standard molecular biology techniques were used to transform and express the CPT1 proteins in the yeast Saccharomyces cerevisiae. The yeast cells were lysed by enzymatic degradation of the cell wall by Zymolase, and the mitochondria were isolated by standard biochemical techniques. The integrity of the isolated mitochondria was monitored by determining the activity of succinate dehydrogenase in the mitochondrial preparations. The mitochondrial extracts were stored at −80° C. in buffer containing 10 mM HEPES pH 7.4 and 250 mM sucrose.
Human CPT1 (A, B, C) genes were additionally cloned into the pCDNA3.1 vector individually for expression in cultured mammalian cells. Cells expressing the exogenous CPT1A were identified and grown under standard conditions. Mammalian cells were harvested, and mitochondrial extracts prepared using standard biochemical methods. The mitochondrial extracts were stored at −80° C. in buffer containing 10 mM HEPES pH 7.4 and 250 mM sucrose.
Assays were performed in 96-well plate format. Each 100 μL reaction contained 40 mM KCl, 50 mM TrisHCl pH 7.5, and 250 mM mannitol (Assay Buffer), and 1.6 μg protein of an extract, 20 μM palmitoyl-CoA, 50 μM L-carnitine, and 10 ug/mL BSA. Reactions were incubated at room temperature and stopped after 10 minutes by extraction with 200 μL of water saturated n-butanol containing myristoyl carnitine (500 nM) as an internal standard. The samples were thoroughly mixed, and the phases separated by centrifugation. Samples were prepared for analysis with a 10 fold dilution of the n-butanol phase containing the reaction product palmitoyl carnitine into a 50:50 (acetonitrile:water) solvent for analysis. […] of prepared sample was separated on a Phenomenex Jupiter 5μ C4 reverse-phase column using an Agilent 1100 HPLC with a gradient from 50% acetonitrile (0.5% acetic acid) to 100% acetonitrile and quantified by detection with a Bruker Esquire 3000plus mass spectrometer. The abundance of the palmitoyl carnitine product was determined relative to the internal standard and the actual quantity of palmitoyl carnitine can be determined from a standard curve prepared using the n-butanol solution containing the internal standard.
Compounds were evaluated in two formats, a screening format, and a dose response format. The screening format was performed by adding 25 μL compound in 20% DMSO and Assay Buffer to 25 μL of extract containing […] and Assay Buffer, followed by a 10 minute incubation at room temperature. 50 μL of 40 μM palmitoyl-CoA in Assay Buffer was added to the reaction mixture, mixed and incubated for 10 minutes at room temperature. A negative control for activity was also performed where the carnitine was omitted from the reaction. A positive control for activity was also performed by omitting compound from the solution containing 20% DMSO and Assay Buffer. The reaction mixture was extracted and analyzed as described above. The inhibition by compound was determined by comparing the control relative activity to the relative activity observed in wells containing the compound. Relative activity was determined by subtracting the relative intensity (area palmitoyl carnitine/area myristoyl carnitine) observed in the negative control from the relative intensity observed in the experimental well, and dividing by the relative activity observed in the positive control.
[formula] Compound characterization by dose response format was performed using the above described assay conditions and a 16 point compound titration in 2 fold compound dilution steps. The DMSO concentration was kept constant at 20% (v/v) for all compound concentrations.

| Compound | IC50 [µM] |
| --- | --- |
| CCOc1ccc(S(=O)(=O)N[C@H](CC(=O)O)C[N+](C)(C)C)cc1NC(=O)N1CCOCC1 [Example S74, (R)-3-carboxy-2-(4-ethoxy-3-(morpholine-4-carboxamido)phenyl-sulfonamido)-N,N,N-trimethylpropan-1-aminium 2,2,2-trifluoroacetate] | > 2500 |
| Cc1cccc(C#Cc2ccc(S(=O)(=O)N[C@H](CC(=O)O)C[N+](C)(C)C)s2)c1 [Example S76, (R)-3-carboxy-N,N,N-trimethyl-2-(5-(m-tolylethynyl)thiophene-2-sulfonamido)propan-1-aminium 2,2,2-trifluoroacetate] | 100 to 1000 |
| Cc1cccc(CCc2ccc(S(=O)(=O)N[C@H](CC(=O)O)C[N+](C)(C)C)s2)c1 [Example S77, (R)-3-carboxy-N,N,N-trimethyl-2-(5-(3-methylphenethyl)thiophene-2-sulfonamido)propan-1-aminium 2,2,2-trifluoroacetate] | 10 to 100 |
| C[N+](C)(C)C[C@@H](CC(=O)O)NS(=O)(=O)c1ccc(C#Cc2ccccc2)s1 [Example S78, (R)-3-carboxy-N,N,N-trimethyl-2-(5-(phenylethynyl)thiophene-2-sulfonamido)propan-1-aminium 2,2,2-trifluoroacetate] | 100 to 1000 |
| C[N+](C)(C)C[C@@H](CC(=O)O)NS(=O)(=O)c1ccc(CCc2ccccc2)s1 [Example S79, (R)-3-carboxy-N,N,N-trimethyl-2-(5-phenethylthiophene-2-sulfonamido)-propan-1-aminium 2,2,2-trifluoroacetate] | 10 to 100 |
| Cc1ccc(C#Cc2ccc(S(=O)(=O)N[C@H](CC(=O)O)C[N+](C)(C)C)s2)cc1 [Example S80, (R)-3-carboxy-N,N,N-trimethyl-2-(5-(p-tolylethynyl)thiophene-2-sulfonamido)propan-1-aminium 2,2,2-trifluoroacetate] | 10 to 100 |
| CCCCCc1ccc(CCc2ccc(S(=O)(=O)N[C@H](CC(=O)O)C[N+](C)(C)C)s2)cc1 [Example S83, (R)-3-carboxy-N,N,N-trimethyl-2-(5-(4-pentylphenethyl)thiophene-2-sulfonamido)propan-1-aminium 2,2,2-trifluoroacetate] | 1 to 10 |
| C[N+](C)(C)C[C@@H](CC(=O)[O-])NC(=O)Nc1cccc(-n2cccc2)c1 [Example S84, (R)-3-(3-(3-(1H-pyrrol-1-yl)phenyl)ureido)-4-(trimethylammonio)butanoate] | 100 to 1000 |
| C[N+](C)(C)C[C@@H](CC(=O)[O-])NC(=O)Nc1cc(C(F)(F)F)ccc1Cl [Example S85, (R)-3-(3-(2-chloro-5-(trifluoromethyl)phenyl)ureido)-4-(trimethyl-ammonio)butanoate] | 1000 to 2500 |
| C[N+](C)(C)C[C@@H](CC(=O)[O-])NC(=O)Nc1cccc(Cc2ccccc2)c1 [Example S86, (R)-3-(3-(3-benzylphenyl)ureido)-4-(trimethylammonio)butanoate] | 100 to 1000 |
| CCCCCCCCc1ccc(N(C)S(=O)(=O)N[C@H](CC(=O)O)C[N+](C)(C)C)cc1 [Example S93, (R)-3-(N-methyl-N-(4-octylphenyl)sulfamoylamino)-4-(trimethylammonio)-butanoate] | 10 to 100 |
| C[N+](C)(C)C[C@@H](CC(=O)O)NC(=O)c1ccc(Br)s1 [Example S95, (R)-2-(5-bromothiophene-2-carboxamido)-3-carboxy-N,N,N-trimethyl-propan-1-aminium trifluoroacetate] | 10 to 100 |
| C[N+](C)(C)C[C@@H](CC(=O)O)NC(=O)Nc1ccccc1I [Example S99, (R)-3-carboxy-2-(3-(2-iodophenyl)ureido)-N,N,N-trimethylpropan-1-aminium] | > 2500 |
| C[N+](C)(C)C[C@@H](CC(=O)[O-])NC(=O)Nc1ccccc1Oc1ccccc1 [Example S100, (R)-3-carboxy-N,N,N-trimethyl-2-(3-(2-phenoxyphenyl)ureido)propan-1-aminium] | > 2500 |
| C[N+](C)(C)C[C@@H](CC(=O)[O-])NC(=O)Nc1ccccc1-c1ccccc1 [Example S101, (R)-2-(3-biphenyl-2-ylureido)-3-carboxy-N,N,N-trimethylpropan-1-aminium] | 1000 to 2500 |

Now from value to compound:

| IC50 [µM] | Compound |
| --- | --- |
| 1 to 10 | Cc1ccc(CCc2ccc(S(=O)(=O)N[C@H](CC(=O)O)C[N+](C)(C)C)s2)cc1 [Example S81, (R)-3-carboxy-N,N,N-trimethyl-2-(5-(4-methylphenethyl)thiophene-2-sulfonamido)propan-1-aminium 2,2,2-trifluoroacetate] |
| 1 to 10 | CCCCCc1ccc(C#Cc2ccc(S(=O)(=O)N[C@H](CC(=O)O)C[N+](C)(C)C)s2)cc1 [Example S82, (R)-3-carboxy-N,N,N-trimethyl-2-(5-((4-pentylphenyl)-ethynyl)thiophene-2-sulfonamido)propan-1-aminium 2,2,2-trifluoroacetate] |
| ≤ 1 | CCCCCc1ccc(NS(=O)(=O)N[C@H](CC(=O)O)C[N+](C)(C)C)cc1 [Example S91, (R)-3-(N-(4-pentylphenyl)sulfamoylamino)-4-(trimethylammonio)butanoate] |
| ≤ 1 | CCCCCCCCCCc1ccc(NS(=O)(=O)N[C@H](CC(=O)O)C[N+](C)(C)C)cc1 [Example S92, (R)-3-(N-(4-decylphenyl)sulfamoylamino)-4-(trimethylammonio)butanoate] |
| ≤ 1 | CCCCCc1ccc(C#Cc2ccc(C(=O)N[C@H](CC(=O)O)C[N+](C)(C)C)s2)cc1 [Example S96, (R)-3-carboxy-N,N,N-trimethyl-2-(5-((4-pentylphenyl)ethynyl)-thiophene-2-carboxamido)propan-1-aminium 2,2,2-trifluoroacetate] |
| ≤ 1 | C[N+](C)(C)C[C@@H](CC(=O)O)NC(=O)c1ccc(C#Cc2ccsc2)s1 [Example S97, (R)-3-carboxy-N,N,N-trimethyl-2-(5-(thiophen-3-ylethynyl)thiophene-2-carboxamido)propan-1-aminium 2,2,2-trifluoroacetate] |
| ≤ 1 | C[N+](C)(C)C[C@@H](CC(=O)O)NC(=O)c1ccc(CCc2ccsc2)s1 [Example S98, (R)-3-carboxy-N,N,N-trimethyl-2-(5-(2-(thiophen-3-yl)ethyl)thiophene-2-carboxamido)propan-1-aminium 2,2,2-trifluoroacetate] |
| ≤ 1 | CCCCCc1ccc(CCc2ccc(C(=O)N[C@H](CC(=O)O)C[N+](C)(C)C)s2)cc1 [Example S102, (R)-3-carboxy-N,N,N-trimethyl-2-(5-(4-pentylphenethyl)thiophene-2-carboxamido)propan-1-aminium 2,2,2-trifluoroacetate] |
| ≤ 1 | CCCCCCCCOc1ccc(NS(=O)(=O)N[C@H](CC(=O)[O-])C[N+](C)(C)C)cc1 [Example S103, (R)-3-(N-(4-(octyloxy)phenyl)sulfamoylamino)-4-(trimethylammonio) butanoate] |
